Results on 80 compounds are retold here after the METLIN SMRT retention time set (Domingo-Almenara et al. 2019).

The nature of the series: gradient 5% acetonitrile 3 min, to 50% in 2 min, to 85% in 15 min, held 3 min, 100 µL/min. To be noted: column: Zorbax Extend-C18 2.1 x 50 mm; eluents: water / acetonitrile, 0.1% formic acid. Summed up:
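Data were gathered over 3 months by HPLC coupled to a quadrupole time-of-flight mass spectrometer, operated in positive and negative ionization mode. Mixtures of ~100 pure standards ran on a Zorbax Extend-C18 column (2.1 × 50 mm, 1.8 μm) at 100 μL/min, with water and acetonitrile each containing 0.1% formic acid and dead and dwell volumes of 40 μL and 900 μL. Retention time was read from adduct peaks picked by computer and checked manually.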
The compound `Cc1nc2cc(N3CCCC(C(=O)NC4CCCCC4)C3)cnc2nc1C` (stereo not given) displayed an RP-LC retention time of 723 s.

`CC(=O)Nc1ccc(-n2c(-c3ccc(Cl)cc3)cn3c4c(=O)n(C)c(=O)n(C)c4nc23)cc1` showed an RP-LC retention time of 766 s.

For `COCCNc1c(-c2cccc(OC)c2)nc2sc(C(=O)N(C)C)c(C)n12`, the RP-LC retention time amounted to 698 s.

Compound `Cn1cnc(S(=O)(=O)N2CCN(c3ccccn3)CC2)c1` gave an RP-LC retention time of 536 s.

As for `COc1cc(OC)cc(C(=O)Nc2ccc(N3CCN(C4CCCC4)C3=O)nc2)c1`, the RP-LC retention time came out at 829 s.

Turning to `CCn1cc(CN2CCC(C(=O)NCc3ccco3)CC2)c2cc(Cl)ccc21`, the RP-LC retention time was found to be 722 s.

As for `O=C(NCCCn1c(-c2ccncc2)nc2cccnc21)NCCc1ccccc1`, the RP-LC retention time amounted to 649 s.

Turning to `CCOC(=O)C1CCN(C(=O)c2ccc(-c3nc4ccccc4n(CC(C)C)c3=O)cc2)CC1`, the RP-LC retention time stood at 1060 s.

Consider `CCN1c2ccccc2C(=O)NC12CCN(C(=O)c1ccc(F)c(F)c1)CC2`, for which the RP-LC retention time worked out at 799 s.

Take `CCCN1C(=O)c2cc(S(=O)(=O)NCc3ccccc3)ccc2Oc2cccnc21`: the RP-LC retention time stood at 1050 s.

`CC(C)c1ccc(S(=O)(=O)N2C[C@@H](F)C[C@H]2C(=O)N2CCOCC2)cc1` registered an RP-LC retention time of 802 s.

`CCCC(=O)N1CC(c2nc(-c3cccnc3)no2)C2(CCOCC2)C1` (stereo not given) had an RP-LC retention time of 622 s.

As to `Cc1cccc(-c2noc(C3CCCN3C(=O)Nc3cccc(F)c3)n2)c1` (stereo not given), the RP-LC retention time is 1050 s.

Compound `O=C(Cn1c(=O)cc(-c2nc(C3CC3)no2)c2ccccc21)NCc1ccc(F)cc1` came in with an RP-LC retention time of 923 s.

As to `Cc1ccc(C)c(N2CCN(C(=O)Cn3nc(C(=O)N4CCCC4)c4ccccc43)CC2)c1`, the RP-LC retention time turned out to be 1040 s.

`Cc1ccc(CN2CCc3nc(N4CCN(c5ccccc5F)CC4)ncc3C2)cc1` yielded an RP-LC retention time of 824 s.

In turn, `Cc1cc(-c2nnc(C3CCC3)o2)c(C)n1CC(=O)Nc1ccccc1` yielded an RP-LC retention time of 846 s.

Turning to `CN(CC1(C)CCOCC1)C(=O)c1ccc2ccccc2n1`, the RP-LC retention time worked out at 727 s.

Turning to `Cc1nc(-c2csc(S(=O)(=O)N3CCC(C(=O)NCc4ccccc4Cl)CC3)c2)no1`, the RP-LC retention time amounted to 895 s.

Compound `O=C(NCc1ccc(F)cc1)c1ccc2c(c1)nc1n2CCN(Cc2ccccc2)C1=O` showed an RP-LC retention time of 775 s.

`CCN(c1cccc(C)c1)S(=O)(=O)c1ccc2c(c1)N(C(C)=O)CCCS2`: the RP-LC retention time is 986 s.

For `CCCN(CC1CCOC1)S(=O)(=O)c1cc(F)ccc1C` (stereo not given), the RP-LC retention time was 943 s.

With `Cc1[nH]c(=O)[nH]c(=O)c1CC(=O)NCCc1cccs1`, the RP-LC retention time turned out to be 574 s.

Compound `CC(C)Oc1ccc(CN2CC[C@]3(CO)CN(Cc4ccccc4)C[C@@H]3C2)cc1` showed an RP-LC retention time of 718 s.

Compound `Cc1ccc(CNC(=O)[C@@]23CCCC[C@H]2N(C)C(=O)CC3)cc1` registered an RP-LC retention time of 688 s.

Consider `CCC(=O)N1CCc2c(C(=O)N3CCN(c4ccccc4F)CC3)cccc21`, for which the RP-LC retention time worked out at 872 s.

In the case of `CNS(=O)(=O)c1cccnc1Nc1cccc(C(C)C)c1`, the RP-LC retention time was 1080 s.

Take `O=C(CCCSc1ccc(NC(=O)C2CC2)nn1)NCc1ccccc1Cl`: the RP-LC retention time was found to be 754 s.

In turn, `CCN1C(=O)COc2ccc(-c3noc(C4(c5ccccc5)CC4)n3)cc21` showed an RP-LC retention time of 991 s.

Take `CCN(CCCNC(=O)C1CCCN(c2ncnc3c2oc2ccccc23)C1)c1ccccc1` (stereo not given): the RP-LC retention time came out at 649 s.

`Cc1ccc(NC(=O)Cc2csc3nc(-c4ccc(C)c(C)c4)cn23)c(C)c1` came in with an RP-LC retention time of 930 s.

Compound `COc1ccc(CCn2nnnc2C2(c3ccc(C)cc3)CC2)cc1` returned an RP-LC retention time of 1150 s.

The compound `CCOC(=O)c1nc(NCCc2ccccc2)c2ccccc2n1` registered an RP-LC retention time of 769 s.

Take `COc1ccc2nc(C(=O)NCc3ccccc3Br)cn2n1`: the RP-LC retention time stood at 891 s.

Take `COC(=O)C1=CN(c2ccc(F)c(Cl)c2)c2ccccc2S1(=O)=O`: the RP-LC retention time was found to be 910 s.

`CCn1cc(CCNC(=O)Nc2ccccc2)c2cccnc21` yielded an RP-LC retention time of 693 s.

`CCOc1ccc(NC(=O)Cn2nc3c(Oc4ccccc4)nccn3c2=O)cc1` had an RP-LC retention time of 822 s.

For the compound `CCn1c(=O)c(N2CCN(C(=O)Nc3cc(C)ccc3C)CC2)nc2ccccc21`, the RP-LC retention time amounted to 984 s.

Take `CC(=O)Nc1onc(C)c1-c1ccc(C)c(S(=O)(=O)N(C)Cc2ccccc2)c1`: the RP-LC retention time was 905 s.

Compound `CCc1noc2nc(C)n(CC(=O)NCc3ccc(OC)cc3)c(=O)c12` had an RP-LC retention time of 755 s.

In turn, `COc1ccc(CN(C(=O)c2oc3ccccc3c2C)C2CCS(=O)(=O)C2)cc1OC` (stereo not given) gave an RP-LC retention time of 826 s.

Regarding `Cc1ccc(C(=O)NCCc2sccc2C)cc1NC1=NC2CS(=O)(=O)CC2S1` (stereo not given), the RP-LC retention time stood at 685 s.

`O=C(NCc1cccs1)C1CCN(CCc2c[nH]c3ncccc23)CC1` displayed an RP-LC retention time of 563 s.

As to `COc1ccc(Cl)cc1NC(=O)Nc1ccc2c(c1)CCN2S(=O)(=O)c1ccccc1`, the RP-LC retention time is 1090 s.

As for `Cc1ccc(Nc2c(-c3cc(Br)ccc3F)nc3ccccn23)cc1`, the RP-LC retention time is 801 s.

Take `COC(=O)c1ccc(NC(=O)Cn2c(-c3cccnc3)nc3ccccc32)cc1`: the RP-LC retention time turned out to be 708 s.

Compound `Cc1ccc(-c2nc(-c3ccc4oc(C)nc4c3)no2)cc1` displayed an RP-LC retention time of 1180 s.

`COc1ccc(OC)c(CN2CCCC(OCc3noc(-c4ccoc4)n3)C2)c1` (stereo not given) had an RP-LC retention time of 702 s.

`Cc1nn(CC(=O)NCCC(C)C)c(=O)c2c(-n3cccc3)n(-c3ccc(Cl)cc3)nc12` returned an RP-LC retention time of 1030 s.

Compound `O=C(NC1CCCC1)c1cc2sccc2n1Cc1ccc(F)cc1` gave an RP-LC retention time of 1080 s.

`COc1ccccc1CNC(=O)C1CCN(S(=O)(=O)c2cn(C(C)C)cn2)CC1` returned an RP-LC retention time of 733 s.

As to `COc1ccc(NC(=O)c2c(F)cccc2F)c([N+](=O)[O-])c1`, the RP-LC retention time is 831 s.

With `Cc1cc2nn(CC(=O)Nc3ccc(F)cc3)c(=O)n2c(-c2ccccc2)n1`, the RP-LC retention time was 785 s.

Consider `CCOC(=O)c1cc([N+](=O)[O-])sc1NC(=O)c1nc2ccccc2s1`, for which the RP-LC retention time is 1270 s.

Turning to `CC(C)C(=O)Nc1nc(-c2ccc3c(c2)NC(=O)CO3)cs1`, the RP-LC retention time turned out to be 739 s.

Regarding `O=C(COc1ccc(Cl)cc1)Oc1ccc2nc(N3CCOCC3)sc2c1`, the RP-LC retention time is 971 s.

On to `CC(=O)Nc1ccc(-c2nc(-c3cccc(-c4ccn[nH]4)c3)no2)cc1`, for which the RP-LC retention time is 790 s.

In turn, `Cc1noc(C)c1CNC(=O)c1ccccn1` registered an RP-LC retention time of 648 s.

As for `CCc1nncn1C1CCN(S(=O)(=O)c2ccccc2C)CC1`, the RP-LC retention time is 686 s.

Compound `COc1ccc(-c2noc(C3(NC(=O)COc4ccccc4)CCCCC3)n2)cc1` showed an RP-LC retention time of 1170 s.

In turn, `Cc1ccc(S(=O)(=O)N2CCC(CCNC(=O)NC3CCCCC3)CC2)cc1` gave an RP-LC retention time of 905 s.

On to `Cc1oc(C2CCN(C(=O)c3ccsc3)CC2)nc1C(=O)N1CCCCC1`, for which the RP-LC retention time amounted to 745 s.

On to `O=C(Cc1csc(Nc2ccc(Cl)cn2)n1)Nc1ccc(OC(F)(F)F)cc1`, for which the RP-LC retention time was 1030 s.

With `COc1cc(NC(=O)NC2CCN(c3ccc(F)cc3)C2=O)cc(OC)c1` (stereo not given), the RP-LC retention time is 769 s.

The compound `Cn1nc(C(=O)N2CCCC2)c2c1CCN(C(=O)Nc1cccc(Br)c1)C2` yielded an RP-LC retention time of 804 s.

In turn, `Cc1cnc(CCNS(=O)(=O)c2ccc(C#N)cc2)n1C1CC1` came in with an RP-LC retention time of 960 s.

Compound `Cc1ccc(C2CCCN2C(=O)c2nc3nc(C)cc(C(F)F)n3n2)cc1` (stereo not given) yielded an RP-LC retention time of 835 s.

Regarding `Cc1ccc(F)cc1S(=O)(=O)N1CCc2c(c(-c3nnc(-c4ccc(F)cc4)o3)nn2C)C1`, the RP-LC retention time amounted to 1000 s.

The compound `Cc1nc(-c2csc(S(=O)(=O)N3CCC(C(=O)NCc4ccc(Cl)cc4)CC3)c2)no1` came in with an RP-LC retention time of 926 s.

With `O=C(NCc1ccccc1)N1CCC(Nc2cccnc2)C1` (stereo not given), the RP-LC retention time turned out to be 580 s.

On to `CN(C(=O)CSc1nc(-c2ccccc2)no1)c1ccc(F)cc1`, for which the RP-LC retention time turned out to be 1020 s.

Consider `CSc1cccc(NC(=O)NC2CCN(c3ccc(F)c(C)c3)C2=O)c1` (stereo not given), for which the RP-LC retention time stood at 867 s.

`O=C(CN1CCN(C(=O)Nc2ccc(Cl)cc2)CC1=O)N1CCN(C2CCCCC2)CC1` yielded an RP-LC retention time of 624 s.

`COc1ccc(-c2cc(C(=O)NCC(c3cccs3)N(C)C)no2)cc1` (stereo not given) gave an RP-LC retention time of 675 s.

On to `CCNC(=O)C(=O)NCC(c1ccc2c(c1)CCCN2C)N1CCCC1` (stereo not given), for which the RP-LC retention time stood at 615 s.

On to `Cc1ccc(-c2cn3c(CC(=O)Nc4ccc(F)c(Cl)c4)csc3n2)cc1C`, for which the RP-LC retention time turned out to be 678 s.

For the compound `COc1ccc(CN(Cc2ccccc2)Cc2cc(=O)n3cc(C)ccc3n2)cc1`, the RP-LC retention time stood at 696 s.

The compound `O=C(Nc1ccc(F)cc1)C1CCCN(S(=O)(=O)Cc2ccc(F)cc2)C1` (stereo not given) registered an RP-LC retention time of 933 s.

Consider `Cc1ccccc1NC(=O)N1CCC(CCNC(=O)C2(c3ccccc3)CC2)CC1`, for which the RP-LC retention time turned out to be 873 s.

For the compound `COc1ccc(CNC(=O)c2cccc(N3CCNC(c4ccccc4)C3)n2)cc1` (stereo not given), the RP-LC retention time worked out at 634 s.
